Values quoted from earlier work, collected in patent US8980870B2, “Solid telmisartan pharmaceutical formulations” (Boehringer Ingelheim International GmbH, priority 2002, dated 2015).

Details: physiological pH range of the gastrointestinal tract, between pH 1 to 7; both polymorphic forms A and B

solubility in aqueous systems: very poor solubility
SMILES: CCCc1nc2c(C)cc(-c3nc4ccccc4n3C)cc2n1Cc1ccc(-c2ccccc2C(=O)O)cc1 [telmisartan, 4′-[2-n-propyl-4-methyl-6-(1-methylbenzimidazol-2-yl)benzimidazol-1-ylmethyl]biphenyl-2-carboxylic acid]
